# pIC50: −log10 of the molar value.
# Tests used:
# [1] = target: T1, JAK2 (Homo sapiens, UniProt O60674); assay: Jak Biochemical HTRF Assay (JAK2); conditions: recombinant purified GST-tagged catalytic domain, [ATP] 8.5 μM, values given as range classes
# T1 construct: recombinant purified GST-tagged catalytic domain for each enzyme; purchased Invitrogen M4290
# Summary of the method: (§1)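 GST-tagged recombinant catalytic domain and biotinylated peptide substrate were preincubated with compound for 30 min at room temperature in kinase buffer with 2 mM DTT and 0.05% BSA. ATP then started a 120 min reaction. Phosphopeptide was detected by HTRF (Eu-pY20/streptavidin-Dylight 650, 665/615 nm ratio), and IC50 came from a 4-parameter fit of percent inhibition.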
# [2] = target: T2, JAK3 (Homo sapiens, UniProt P52333); assay: Jak Biochemical HTRF Assay (JAK3); conditions: recombinant purified GST-tagged catalytic domain, [ATP] 2.9 μM, values given as range classes
# T2 construct: recombinant purified GST-tagged catalytic domain for each enzyme; purchased Invitrogen M4290
# Summary of the method: as §1
# T1 sequence (O60674 849-1124 limits assumed): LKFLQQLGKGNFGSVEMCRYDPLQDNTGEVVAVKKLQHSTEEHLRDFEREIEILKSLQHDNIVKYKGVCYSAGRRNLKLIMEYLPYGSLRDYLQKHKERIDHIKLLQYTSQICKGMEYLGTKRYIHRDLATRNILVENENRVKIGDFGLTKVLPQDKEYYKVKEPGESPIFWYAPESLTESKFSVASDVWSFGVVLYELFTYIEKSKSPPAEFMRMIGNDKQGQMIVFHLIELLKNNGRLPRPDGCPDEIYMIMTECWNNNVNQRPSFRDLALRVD
# T2 sequence (P52333 822-1111 limits assumed): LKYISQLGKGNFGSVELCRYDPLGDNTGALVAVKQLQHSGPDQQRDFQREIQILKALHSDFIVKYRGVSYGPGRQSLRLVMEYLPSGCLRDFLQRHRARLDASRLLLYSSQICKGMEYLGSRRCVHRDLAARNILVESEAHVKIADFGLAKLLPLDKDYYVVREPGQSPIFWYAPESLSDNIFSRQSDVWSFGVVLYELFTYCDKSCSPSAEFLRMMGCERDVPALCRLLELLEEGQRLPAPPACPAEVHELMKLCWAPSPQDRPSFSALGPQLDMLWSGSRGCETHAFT
compound,measurement,setting,value
"CC(C)NC(=O)Nc1cnc2[nH]cc(-c3cncc(N[C@H](C(=O)NCC(F)(F)F)C(C)C)c3)c2c1 [Example 6-1, N^2-(5-{5-[(propan-2-ylcarbamoyl)amino]-1H-pyrrolo[2,3-b]pyridin-3-yl}pyridin-3-yl)-N-(2,2,2-trifluoroethyl)valinamide]",pIC50,[1],6.30 to 8.00
same,pIC50,[2],≥ 8.00
"N#Cc1cnc2[nH]cc(-c3nncc(N4CCCC4c4nccs4)n3)c2c1 (stereo not shown) [Example 1-12, 3-{5-[2-(1,3-thiazol-2-yl)pyrrolidin-1-yl]-1,2,4-triazin-3-yl}-1H-pyrrolo[2,3-b]pyridine-5-carbonitrile]",pIC50,[1],6.30 to 8.00
same,pIC50,[2],6.30 to 8.00
"CC(C)[C@@H](Nc1cncc(-c2c[nH]c3ncc(C(=O)NCc4cnn(C)c4)cc23)c1)C(=O)NCC(F)(F)F [Example 3-12, N-[(1-methyl-1H-pyrazol-4-yl)methyl]-3-[5-({(1R)-2-methyl-1-[(2,2,2-trifluoroethyl)carbamoyl]propyl}amino)pyridin-3-yl]-1H-pyrrolo[2,3-b]pyridine-5-carboxamide]",pIC50,[1],≥ 8.00
same,pIC50,[2],≥ 8.00
"C[C@@H](Nc1cnnc(-c2c[nH]c3ncc(F)cc23)n1)C(=O)NCC(F)(F)F [Example 1-8, N~2~-[3-(5-fluoro-1H-pyrrolo[2,3-b]pyridin-3-yl)-1,2,4-triazin-5-yl]-N-(2,2,2-trifluoroethyl)-D-alaninamide]",pIC50,[1],6.30 to 8.00
same,pIC50,[2],6.30 to 8.00
"CC(C)[C@H](Nc1cncc(-c2c[nH]c3ncc(OCCN(C)C)cc23)c1)C(=O)NCC(F)(F)F [Example 2-13, N~2~-(5-{5-[2-(dimethylamino)ethoxy]-1H-pyrrolo[2,3-b]pyridin-3-yl}pyridin-3-yl)-N-(2,2,2-trifluoroethyl)valinamide]",pIC50,[1],< 6.30
same,pIC50,[2],6.30 to 8.00
"CC(C)OC(=O)Nc1cnc2[nH]cc(-c3cncc(NC(C(=O)NCC(F)(F)F)C(C)C)c3)c2c1 (stereo not shown) [Example 7-3, 1-methylethyl {3-[5-({2-methyl-1-[(2,2,2-trifluoroethyl)carbamoyl]propyl}amino)pyridin-3-yl]-1H-pyrrolo[2,3-b]pyridin-5-yl}carbamate]",pIC50,[1],6.30 to 8.00
same,pIC50,[2],6.30 to 8.00
"COCC(=O)Nc1cnc2[nH]cc(-c3cncc(N[C@H](C(=O)NCC(F)(F)F)C(C)C)c3)c2c1 [Example 5-8, N~2~-(5-{5-[(methoxyacetyl)amino]-1H-pyrrolo[2,3-b]pyridin-3-yl}pyridin-3-yl)-N-(2,2,2-trifluoroethyl)valinamide]",pIC50,[1],6.30 to 8.00
same,pIC50,[2],≥ 8.00
"CCC(=O)Nc1cnc2[nH]cc(-c3cncc(NC(C(=O)NCC(F)(F)F)C(C)C)c3)c2c1 (stereo not shown) [Example 5-6, N^2-{5-[5-(propanoylamino)-1H-pyrrolo[2,3-b]pyridin-7-ium-3-yl]pyridin-3-yl}-N-(2,2,2-trifluoroethyl)valinamide]",pIC50,[1],6.30 to 8.00
same,pIC50,[2],≥ 8.00
"CC(C)[C@@H](Nc1cncc(-c2c[nH]c3ncc(C(=O)N4CCC4)cc23)c1)C(=O)NCC(F)(F)F [Example 3-6, N~2~-{5-[5-(azetidin-1-ylcarbonyl)-1H-pyrrolo[2,3-b]pyridin-3-yl]pyridin-3-yl}-N-(2,2,2-trifluoroethyl)-D-valinamide]",pIC50,[1],6.30 to 8.00
same,pIC50,[2],≥ 8.00
"NC(=O)c1cnc2[nH]cc(-c3cncc(N[C@@H]4CCCC[C@@H]4C(=O)NCC(F)(F)F)c3)c2c1 [Example 1-40, 3-[5-({(1R,2S)-2-[(2,2,2-trifluoroethyl)carbamoyl]cyclo-hexyl}amino)pyridin-3-yl]-1H-pyrrolo[2,3-b]pyridine-5-carboxamide]",pIC50,[1],≥ 8.00
same,pIC50,[2],≥ 8.00
"CC(C)[C@H](Nc1cncc(-c2c[nH]c3ncc(Cl)cc23)c1)C(=O)NCC(F)(F)F [Example 1-52, N-18 2~-[5-(5-chloro-1H-pyrrolo[2,3-b]pyridin-3-yl)pyridin-3-yl]-N-(2,2,2-trifluoroethyl)-L-valinamide]",pIC50,[1],6.30 to 8.00
same,pIC50,[2],≥ 8.00
